Measured values taken from US9695155B2, “Herbicidal substituted pyrimidinyloxy benzene compounds” (E. I. DU PONT DE NEMOURS AND COMPANY, priority 2013, dated 2017).

Key:
soybean = assay: Test C preemergence; format: in vivo, Glycine max; settings: for Soybean plant response rating: preemergence
Summary of the method: (§1)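 Whole-plant greenhouse test with surfactant-containing solvent formulation, applied preemergence to sown loam–sand pots or postemergence to 2–18 cm plants. Scored by eye 13 to 15 days on, 0–100 scale.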

large (Lg) crabgrass = assay: Test C preemergence; format: in vivo, Digitaria sanguinalis; settings: for Crabgrass, Large plant response rating: preemergence
Summary of the method: as §1

ragweed = assay: Test C preemergence; format: in vivo, Ambrosia elatior; settings: for Ragweed plant response rating: preemergence
Summary of the method: as §1

kochia [1] = assay: Test A preemergence; format: in vivo, Kochia scoparia; settings: 0 to 100 scale where 0 is no effect and 100 is complete control
Summary of the method: (§2)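 Compounds in non-phytotoxic solvent with surfactant applied as soil spray preemergence, or postemergence to plants 2-10 cm at one- to two-leaf stage, in loam/sand. After approximately 10 days in greenhouse, injury rated visually versus untreated controls, 0 (no effect) to 100 (complete control).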

giant foxtail = assay: Test C preemergence; format: in vivo, Setaria faberii; settings: for Foxtail, Giant plant response rating: preemergence
Summary of the method: as §1

morningglory = assay: Test C preemergence; format: in vivo, Ipomoea coccinea; settings: for Morningglory plant response rating: preemergence
Summary of the method: as §1

kochia [2] = assay: Test A postemergence; format: in vivo, Kochia scoparia; settings: 0 to 100 scale where 0 is no effect and 100 is complete control
Summary of the method: as §2

waterhemp = assay: Test C preemergence; format: in vivo, Amaranthus rudis; settings: for Waterhemp plant response rating: preemergence
Summary of the method: as §1

galium [3] = assay: Test A postemergence; format: in vivo, Galium aparine; settings: 0 to 100 scale where 0 is no effect and 100 is complete control
Summary of the method: as §2

blackgrass [4] = assay: Test C preemergence; format: in vivo, Alopecurus myosuroides; settings: for Blackgrass plant response rating: preemergence
Summary of the method: as §1

oilseed rape = assay: Test C preemergence; format: in vivo, Brassica napus; settings: for Oilseed Rape plant response rating: preemergence
Summary of the method: as §1

galium [5] = assay: Test C preemergence; format: in vivo, Galium aparine; settings: for Galium plant response rating: preemergence
Summary of the method: as §1

velvetleaf = assay: Test C preemergence; format: in vivo, Abutilon theophrasti; settings: for Velvetleaf plant response rating: preemergence
Summary of the method: as §1

pigweed = assay: Test C preemergence; format: in vivo, Amaranthus retroflexus; settings: for Pigweed plant response rating: preemergence
Summary of the method: as §1

lambsquarters = assay: Test C preemergence; format: in vivo, Chenopodium album; settings: for Lambsquarters plant response rating: preemergence
Summary of the method: as §1

barnyardgrass = assay: Test C preemergence; format: in vivo, Echinochloa crus-galli; settings: for Barnyardgrass plant response rating: preemergence
Summary of the method: as §1

blackgrass [6] = assay: Test A postemergence; format: in vivo, Alopecurus myosuroides; settings: 0 to 100 scale where 0 is no effect and 100 is complete control
Summary of the method: as §2

Italian ryegrass = assay: Test A postemergence; format: in vivo, Lolium multiflorum; settings: 0 to 100 scale where 0 is no effect and 100 is complete control
Summary of the method: as §2

[7] = 8 g ai/ha, scale 0 to 100 (0 no effect, 100 complete control)
[8] = 16 g ai/ha, scale 0 to 100 (0 no effect, 100 complete control)
[9] = 62 g ai/ha, scale 0 (no effect) to 100 (complete control)
[10] = Preemergence, 31 g ai/ha, scale 0 to 100, 0 no effect, 100 complete control

For `N#Cc1cnn(-c2c(C#N)cccc2Oc2ncc(Br)cn2)c1` [Compound 135], the “Soybean plant response rating” value (soybean; [7]) was 10, the “Soybean plant response rating” value (soybean; [8]) was 20 and the “Soybean plant response rating” value (soybean; [9]) was 85. For the same compound, the “Plant response rating, Soybean” value (soybean; [10]) was 65, the “Crabgrass, Large plant response rating” value (large (Lg) crabgrass; [7]) was 45 and the “Crabgrass, Large plant response rating” value (large (Lg) crabgrass; [8]) was 60. For the same compound, the “Crabgrass, Large plant response rating” value (large (Lg) crabgrass; [9]) was 100, the “Plant response rating, Crabgrass, Large” value (large (Lg) crabgrass; [10]) was 100 and the “Ragweed plant response rating” value (ragweed; [7]) was 0. For the same compound, the “Ragweed plant response rating” value (ragweed; [8]) was 40, the “Ragweed plant response rating” value (ragweed; [9]) was 65 and the “Plant response rating, Ragweed” value (ragweed; [10]) was 55. For the same compound, the “Plant response rating, Kochia” value (kochia [1]; 125 g ai/ha) was 100, the “Kochia plant response rating” value (kochia [1]; 500 g ai/ha) was 100 and the “Foxtail, Giant plant response rating” value (giant foxtail; [7]) was 0. For the same compound, the “Foxtail, Giant plant response rating” value (giant foxtail; [8]) was 5, the “Foxtail, Giant plant response rating” value (giant foxtail; [9]) was 70 and the “Plant response rating, Foxtail, Giant” value (giant foxtail; [10]) was 70. The “Morningglory plant response rating” value (morningglory; [7]) was 5, the “Morningglory plant response rating” value (morningglory; [8]) was 50 and the “Morningglory plant response rating” value (morningglory; [9]) was 80. For the same compound, the “Plant response rating, Morningglory” value (morningglory; [10]) was 50, the “Kochia plant response rating” value (kochia [2]; 125 g ai/ha) was 20 and the “Plant response rating, Kochia” value (kochia [2]; 500 g ai/ha) was 70. For the same compound, the “Waterhemp plant response rating” value (waterhemp; [7]) was 55, the “Waterhemp plant response rating” value (waterhemp; [8]) was 75 and the “Waterhemp plant response rating” value (waterhemp; [9]) was 100. For the same compound, the “Plant response rating, Waterhemp” value (waterhemp; [10]) was 100, the “Galium plant response rating” value (galium [3]; 125 g ai/ha) was 60 and the “Plant response rating, Galium” value (galium [3]; 500 g ai/ha) was 90. For the same compound, the “Blackgrass plant response rating” value (blackgrass [4]; [7]) was 0, the “Blackgrass plant response rating” value (blackgrass [4]; [8]) was 0 and the “Blackgrass plant response rating” value (blackgrass [4]; [9]) was 20. For the same compound, the “Plant response rating, Blackgrass” value (blackgrass [4]; [10]) was 5, the “Oilseed Rape plant response rating” value (oilseed rape; [7]) was 30 and the “Oilseed Rape plant response rating” value (oilseed rape; [8]) was 55. The “Oilseed Rape plant response rating” value (oilseed rape; [9]) was 95, the “Plant response rating, Oilseed Rape” value (oilseed rape; [10]) was 95 and the “Galium plant response rating” value (galium [5]; [7]) was 0. For the same compound, the “Galium plant response rating” value (galium [5]; [8]) was 0, the “Galium plant response rating” value (galium [5]; [9]) was 90 and the “Plant response rating, Galium” value (galium [5]; [10]) was 80. The “Velvetleaf plant response rating” value (velvetleaf; [7]) was 5, the “Velvetleaf plant response rating” value (velvetleaf; [8]) was 40 and the “Velvetleaf plant response rating” value (velvetleaf; [9]) was 85. The “Plant response rating, Velvetleaf” value (velvetleaf; [10]) was 45, the “Pigweed plant response rating” value (pigweed; [7]) was 50 and the “Pigweed plant response rating” value (pigweed; [8]) was 85. For the same compound, the “Pigweed plant response rating” value (pigweed; [9]) was 98, the “Plant response rating, Pigweed” value (pigweed; [10]) was 80 and the “Lambsquarters plant response rating” value (lambsquarters; [8]) was 30. The “Lambsquarters plant response rating” value (lambsquarters; [9]) was 85, the “Plant response rating, Lambsquarters” value (lambsquarters; [10]) was 85 and the “Barnyardgrass plant response rating” value (barnyardgrass; [7]) was 0. The “Barnyardgrass plant response rating” value (barnyardgrass; [8]) was 0, the “Barnyardgrass plant response rating” value (barnyardgrass; [9]) was 60 and the “Plant response rating, Barnyardgrass” value (barnyardgrass; [10]) was 15. For the same compound, the “Blackgrass plant response rating” value (blackgrass [6]; 125 g ai/ha) was 30, the “Plant response rating, Blackgrass” value (blackgrass [6]; 500 g ai/ha) was 90 and the “Ryegrass, Italian plant response rating” value (Italian ryegrass; 125 g ai/ha) was 20. For the same compound, the “Plant response rating, Ryegrass, Italian” value (Italian ryegrass; 500 g ai/ha) was 70.
